Patent US20100323955A1, “METHODS FOR TREATING OBESITY AND OBESITY RELATED DISEASES AND DISORDERS” (AMYLIN PHARMACEUTICALS, INC., priority 2007, published 2010)

How the values were obtained:
[1] = Example 4: amylin and phentermine in DIO rats, body weight and body composition; assay type: in vivo, rat; conditions: after two weeks, FIG. 11C
Experimental: The combination of amylin and catecholaminergic agonist, phentermine, were also tested for effects on changes in body weight and body composition. Phentermine is classically referred to as a catecholaminergic agonist as it actually hits NA/5-HT receptors. DIO male rats were fattened and divided into four treatment groups, as described above. Each group was implanted with subcutaneous osmotic mini-pumps and/or inserted with an oral gavage, designed to deliver vehicle, phentermine (10 mg/kg/day), amylin (100 μg/kg/day) or phentermine (10 mg/kg/day)+amylin (100 μg/kg/day) for a 14 day period. The mini-pump contained either vehicle (50% DMSO in water) or amylin while the oral gavage administered either sterile water or phentermine Body weight was recorded daily and body composition was measured prior to and after drug treatment using NMR.

[2] = Example 8: 24-week randomized, double-blind clinical study of pramlintide and metreleptin in overweight and obese subjects; assay type: in vivo, human; conditions: for rate of change in body weight, late rate (12-20 weeks): 24-week study, FIG. 24
Experimental: To evaluate inter alia the safety, tolerability and effect of the combination of an amylin agonist (pramlintide) and a leptin (metreleptin) on changes in body weight, a 24-week, randomized, double-blind, active-drug-controlled, multicenter study was conducted under USFDA approved protocols. Secondary objectives of the study were the determination of the pharmacokinetics of pramlintide and leptin, waist circumference, rate of change in body weight, and patient reported outcomes including for example without limitation perception of well-being related to weight change and mood. The study enrolled overweight and obese subjects with defined BMI ([…]), with enrollment statistics as provided in Table 2. […] Subjects treated with pramlintide/metreleptin lost an average of 25 pounds from the start of the 24-week study compared with an average of 17 pounds for subjects treated with pramlintide alone.
In an initial lead-in phase, all subjects received dietary instructions and treatment with pramlintide at 180 mcg BID for two weeks, followed by pramlintide at 360 mcg BID for two weeks. Subjects who completed the 4-week lead-in period and who lost 2-8 percent body weight during this period were eligible to continue the study. The term “enrolled” (Table 2) refers to subjects (N=177) receiving at least one dose of pramlintide during the lead-in period. The term “non-randomized” refers to subjects not continuing in the study past the lead-in period. The term “evaluable” refers to subjects who completed Visit 9 (Week 16) study procedures and adequately complied with the study protocol.
After the 4-week lead-in period, for the remaining 20 weeks of the study the subjects were randomized in a 2:2:1 ratio to one of three groups with BID treatment of 1) pramlintide 360 mcg/metreleptin 5 mg (“Leptin+Pramlintide”); 2) pramlintide 360 mcg/placebo (“Pramlintide”); or 3) metreleptin 5 mg/placebo (“Leptin”).

[3] = Example 5: amylin and rimonabant (CB-1 antagonist) in DIO rats, body weight and body composition; assay type: in vivo, rat; conditions: after two weeks, FIG. 12C
Experimental: These rats were developed by Barry Levin from a line of Crl:CD®(SD)BR rats that are prone to become obese on a diet relatively high in fat and energy. They were housed individually in shoebox cages at 22 C in a 12/12-hour light dark cycle. […] Rats were habituated to oral gavage for 1 week prior to treatment. Rimonabant was administered at a range of doses (0.1, 0.3, 1.0, 3.0. 10 mg/kg/day) by oral gavage. Amylin (dissolved in 50% DMSO sterile water) or vehicle was administered by mini-pump (100 μg/kg/day). Rimonabant was always delivered just prior to lights out. Food intake and body weight were measured at 1 and 2 weeks post-treatment. Body composition was measured prior to and after drug treatment using NMR (Echo Medical Systems, Houston, Tex.). For body composition measurements, rats were briefly placed (˜1 min) in a well-ventilated plexiglass tube that was then inserted into a specialized rodent NMR machine. Rats were scanned prior to pump implantation and on the final day of the experiment. This enabled the calculation of changes in actual grams of fat and dry lean tissue (e.g., grams of body fat after treatment−grams of body fat at baseline=change in grams of body fat) and changes in % body composition for fat and dry lean tissue (e.g., % body fat after treatment−% body fat at baseline=change in % body fat).

[4] = Example 4: amylin and sibutramine in DIO rats, body weight and body composition; assay type: in vivo, rat; conditions: after two weeks, FIG. 10C
Experimental: (§1) Rat amylin was dissolved in 50% DMSO in sterile water and sibutramine was dissolved in sterile water. Each group was implanted with subcutaneous osmotic mini-pumps designed to deliver vehicle, sibutramine (3 mg/kg/day) or amylin (100 μg/kg/day) for a 14 day period. Body weight and food intake were recorded daily. Body composition was measured prior to and after drug treatment using NMR (Echo Medical Systems, Houston, Tex.). For body composition measurements, rats were briefly placed (˜1 min) in a well-ventilated plexiglass tube that was then inserted into a specialized rodent NMR machine. Rats were scanned prior to pump implantation and on the final day of the experiment. This enabled the calculation of changes in actual grams of fat and dry lean tissue (e.g., grams of body fat after treatment−grams of body fat at baseline=change in grams of body fat) and changes in % body composition for fat and dry lean tissue (e.g., % body fat after treatment−% body fat at baseline=change in % body fat).

[5] = Example 3: serum leptin levels (immunoassay) in DIO prone and normal HSD rats after amylin; assay type: in vivo, rat; conditions: amylin 100 μg/kg/day, 14 days, FIG. 8
Experimental: DIO prone and normal HSD rats were divided into three treatment groups. Two groups were implanted with subcutaneous osmotic mini-pumps (DURECT Corp., Cupertino, Calif.) designed to deliver vehicle or amylin (100 μg/kg/day) and the third group was pair-fed to the amount consumed by the amylin-treated group for a 14 day period. Serum leptin levels were determined by immunoassays using a commercial kit (Linco Research, Inc., St. Charles, Mo.). […] Thus, DIO prone rats are hyper-leptinemic.

[6] = Example 7: amylin and PYY(3-36) in DIO rats, body weight and body composition; assay type: in vivo, rat; conditions: after two weeks, FIG. 16C
Experimental: as §1, with “Food intake and body weight” for “Rat amylin”, “was” for “was dissolved in 50% DMSO in sterile water and sibutramine was dissolved in sterile water. Each group was implanted with subcutaneous osmotic mini-pumps designed to deliver vehicle, sibutramine (3 mg/kg/day) or amylin (100 μg/kg/day) for a 14 day period. Body weight and food intake were”

[7] = Example 6: amylin and exendin-4 analog in DIO rats, body weight and body composition; assay type: in vivo, rat; conditions: after two weeks, FIG. 15C
Experimental: […]. Prior to drug administration rats had typically attained a mean body weight of 500 g Exendin-4 analog was administered by minipump at a range of doses (0.3, 1, 3, 10, 30 μg/kg/day). Amylin (dissolved in 50% DMSO in water) or vehicle was administered by mini-pump (100 μg/kg/day). Body weight and food intake was recorded daily. Body composition was measured prior to and after drug treatment using NMR (Echo Medical Systems, Houston, Tex.). For body composition measurements, rats were briefly placed (˜1 min) in a well-ventilated plexiglass tube that was then inserted into a specialized rodent NMR machine. Rats were scanned prior to pump implantation and on the final day of the experiment. This enabled the calculation of changes in actual grams of fat and dry lean tissue (e.g., grams of body fat after treatment−grams of body fat at baseline=change in grams of body fat) and changes in % body composition for fat and dry lean tissue (e.g., % body fat after treatment−% body fat at baseline=change in % body fat).

CC(C)(N)Cc1ccccc1 [phentermine, reference compound]
changes in body protein (lean (protein) mass) [1]: unchanged or tended to be lost

CC[C@H](C)[C@H](NC(=O)[C@@H]1CCCN1C(=O)CNC(=O)[C@H](Cc1ccccc1)NC(=O)[C@H](CC(N)=O)NC(=O)[C@H](CC(N)=O)NC(=O)[C@H](CO)NC(=O)[C@H](CO)NC(=O)[C@H](Cc1c[nH]cn1)NC(=O)[C@@H](NC(=O)[C@H](CC(C)C)NC(=O)[C@H](Cc1ccccc1)NC(=O)[C@H](CC(N)=O)NC(=O)[C@H](C)NC(=O)[C@H](CC(C)C)NC(=O)[C@H](CCCNC(=N)N)NC(=O)[C@H](CCC(N)=O)NC(=O)[C@@H](NC(=O)[C@H](C)NC(=O)[C@@H]1CSSC[C@H](NC(=O)[C@@H](N)CCCCN)C(=O)N[C@@H](CC(N)=O)C(=O)N[C@@H]([C@@H](C)O)C(=O)N[C@@H](C)C(=O)N[C@@H]([C@@H](C)O)C(=O)N1)[C@@H](C)O)C(C)C)C(=O)N[C@@H](CC(C)C)C(=O)N1CCC[C@H]1C(=O)N1CCC[C@H]1C(=O)N[C@H](C(=O)N[C@@H](CC(N)=O)C(=O)N[C@H](C(=O)NCC(=O)N[C@@H](CO)C(=O)N[C@@H](CC(N)=O)C(=O)N[C@H](C(=O)N[C@@H](Cc1ccc(O)cc1)C(N)=O)[C@@H](C)O)C(C)C)[C@@H](C)O [pramlintide, ^25,28,29Pro-h-amylin]
Mean Change in Body Weight (kg) over lead-in period ([2]; 4-week lead-in, all subjects received pramlintide 180 then 360 mcg BID, columns name the later randomization groups): -3.65 kg
rate of change in body weight, late rate (12-20 weeks) [2]: approached a late rate of zero
body weight reduced on average at the end of the 24-week study ([2]; overweight and obese subjects, pramlintide 360 mcg BID, metreleptin 5 mg BID, p<0.001): 8.4%

Cc1c(C(=O)NN2CCCCC2)nn(-c2ccc(Cl)cc2Cl)c1-c1ccc(Cl)cc1 [rimonabant, reference compound]
changes in body protein (lean (protein) mass) [3]: relatively equivalent increase in lean (protein) mass

CC(C)CC(N(C)C)C1(c2ccc(Cl)cc2)CCC1 (stereo not drawn) [sibutramine, reference compound]
changes in body protein (lean (protein) mass) [4]: relatively unchanged

Rat amylin
changes in body protein (lean (protein) mass) [4]: increase in lean (protein) mass
changes in body protein (lean (protein) mass) [3]: relatively equivalent increase in lean (protein) mass
plasma (serum) leptin levels, DIO prone animals ([5]; DIO prone rats): significantly reduced
plasma (serum) leptin levels, normal animals ([5]; normal HSD rats): significantly reduced
changes in body protein (lean (protein) mass) [6]: increase in lean (protein) mass
changes in body protein (lean (protein) mass) [7]: relatively equivalent increase in lean (protein) mass
changes in body protein (lean (protein) mass) [1]: preserved lean (protein) mass

^14Leu-exendin-4 [Exendin-4 analog]
changes in body protein (lean (protein) mass) [7]: relatively equivalent increase in lean (protein) mass

recombinant methionyl human leptin [metreleptin]
rate of change in body weight, late rate (12-20 weeks) [2]: approached a late rate of zero
